From US20240350456A1, “COMPOSITIONS AND METHODS FOR DIAGNOSING AND TREATING INFLAMMATORY CONDITIONS” (RUTGERS, THE STATE UNIVERSITY OF NEW JERSEY, priority 2023, published 2024)
Entries after “also recorded” stand apart in the source; their conditions may differ.

Key:
[1] = tested on: mouse intestinal organoids; assay: Organoid permeability assay with 4 kDa FITC-dextran, LPS with or without metabolites; assay type: cell-based; conditions: ex vivo organoids
Protocol: (§1) Intestinal organoids were isolated as previously described (Das et al., 2015; Pearce et al., 2018). Briefly, crypts were isolated from small intestine of conventional house C57BL/6 male mice (Taconic Laboratories, Hudson, NY) by shaking in isolation buffer (2 mM EDTA in PBS), then, crypts were harvested, processed, and suspended in crypt culture medium (CCM), which consisted of advanced DMEM/F12 (Life Technologies, Carlsbad, CA) supplemented with serum-free B27 (1:50; Life Technologies), N2 (1:100; Life Technologies), N-acetylcysteine (1 mM; Sigma-Aldrich, St. Louis, MO), recombinant murine epithelial growth factor (EGF, 50 ng/ml; Peprotech, Rocky Hill, NJ), Noggin (100 ng/ml; Peprotech), R-Spondin (500 ng/ml; Peprotech), Glutamax-I supplement (1:100; Life Technologies), penicillin/streptomycin (500 μg/ml; Life Technologies), and HEPES ([…]; Life Technologies). Crypts were resuspended in 70% Matrigel (density ˜450 crypts per dome, 2 domes per well in 24-well plate) and allowed to solidify at 37° C. for 20 min. CCM (1.5 mL) was then added to each well. Cultures were incubated in a humidified incubator at 37° C., and CCM was changed daily. Intestinal organoid treatment with LPS and metabolites
(§2) We had 2 series of metabolite-treated organoid experiments, i.e., 1) organoid from conventional C57BL6 mice and 2) Ocln KO and littermate WT control as a gift from Prof. Jerrold Turner (Harvard University). […] Seeding is designated as day 0. On day 3 of culture, the existing media in the wells were completely removed before adding treatments. LPS (1 μg/mL) with or without metabolites, i.e., IPA (0.1 mM) (Li et al., 2021), IAM (200 μM) (Vyhlidalova et al., 2020), MNA (12 ng/ml) (Liu et al., 2015), CARN (20 mM) (Boldyrev et al., 2013) or ASA (1 μM) (Erez et al., 2011) were each added in CCM at known physiological concentrations, incubated for 48 hours, thereafter, organoid was harvested for RNA extraction, and paraformaldehyde fixation for immunostaining.
Permeability assays followed earlier work (Pearce et al., 2018). Briefly, all media were removed and then organoid were incubated with CCM containing 4 kDa FITC-dextran (Sigma-Aldrich, St. Louis, MO, Cat. #46944) at a final concentration of 1.25 µM for 30 minutes at 37° C. and at 5% CO2. […] A fluorescent microscope (Nikon Eclipse TI, NY) at a 10× magnification was used to observe and capture the fluorescence within the lumen of the organoids. Using the same area as the lumen, three different background samples are measured randomly around the lumen. The three background samples measured are averaged and then subtracted from the measured fluorescence of the lumen. […] The quantification of the fluorescence was conducted using the ImageJ 1.53 (NIH, Bethesda, MD).

ZO-1 (Tjp1) and Ocln = assay: Intestinal organoids treated with LPS and metabolites: tight junction (TJ) expression, RT-qPCR and immunostaining; assay type: cell-based, mouse; conditions: for gene expression of Ocln: ex vivo, in the presence of the barrier disruptor; for TJ expression at the protein and mRNA levels: in the presence of LPS (1 μg/mL), 48 hr
Protocol: as §1, §2
Total RNA was extracted from the intestinal organoids using a commercially available kit (RNeasy Microkit; Qiagen, MD, Cat. #74004) following manufacturer's instructions. mRNA samples were converted to cDNA using Bio-Rad's iScript Reverse Transcription Supermix for RT-qPCR (Bio-Rad Laboratories, Hercules, CA, Cat. #1708840). cDNA was then used for RT-qPCR (Mx3000P. Stratagene, La Jolla, CA) to analyze several genes using Maxima SYBR Green qPCR Master Mix (Thermo Fisher Scientific, Waltham, MA) and primers (Integrated DNA Technologies, Coralville, IA). Thermal profile for three-step cycling was 10 min at 95° C. for initial denaturation; then 40 cycles of 15 sec at 95° C. for denaturation, 30 sec at 65° C. for annealing, and 30 sec at 75° C. for extension. Primers used are as follows: β-actin (Actb), forward 5′-[…]-3′ (SEQ ID NO: 5), reverse 5′-[…]-3′ (SEQ ID NO: 6); ZO-1 (Tjp1), forward 5′-[…]-3′ (SEQ ID NO: 7), reverse 5′-[…]-3′ (SEQ ID NO: 8), Ocln, forward 5′-[…]-3′ (SEQ ID NO: 9), reverse 5′-[…]-3′ (SEQ ID NO: 10); Lyz1, forward 5′-ATGGCTACCGTGGTGTCAAG-3′ (SEQ ID NO: 11), reverse 5′-CGGTCTCCACGGTTGTAGTT-3′ (SEQ ID NO: 12); Tff3, forward 5′-TAATGCTGTTGGTGGTCCTG-3′ (SEQ ID NO: 13), reverse 5′-CAGCCACGGTTGTTACACTG-3′ (SEQ ID NO: 14). All samples were normalized to β actin expression. Gene expression levels are depicted as fold change relative to the control group.
Immunocytochemistry followed earlier work (Pearce et al., 2018). Briefly, organoids were extracted from Matrigel by using cell recovery solution (Corning, Cat. No. 354253), processed then fixed in 4% paraformaldehyde for 15 min and dehydrated with 70% ethanol and kept in 4° C. until embedded in paraffin. On the day of embedding, organoids were gently spun down to a pellet (250 g for 5 min), then the supernatant was removed, the pellet resuspended in agarose and embedded in paraffin. […]

[2] = tested on: leaky gut mouse model (DSS colitis); assay: DSS (3%) leaky gut colitis mouse model, metabolites i.p.; assay type: in vivo
Description: A moderate amount of DSS (3%) creates a leaky gut model.
FIG. 23A, Analysis of plasma ovalbumin levels after oral ovalbumin gavage in mice treated with exogenous MNA or PBS. […] Analysis of fecal lipocalin levels in mice treated with PBS or MNA with or without DSS. […] Representative histology sections of mice treated with PBS or MNA with or without DSS. FIG. 23D, quantification of mouse histology sections scored for colitis index.
FIG. 24A, Analysis of zonula occludens (Tjp1) and occluding (Ocln) mRNA levels after treatment with PBS or MNA with or without DSS. FIG. 24B, Western blot analysis and quantification of Ocln protein levels after treatment with PBS or MNA with or without DSS. FIG. 24C, Quantified levels of occluding in the ileum (top) and colon (bottom) using immunofluorescence antibody staining.
Administration of DSS induces experimental colitis and disrupts gut barrier in vivo in animal models.
Exogenous MNA administration was assessed by plasma ovalbumin levels after oral ovalbumin gavage—an accepted method to determine permeability of the gut paracellular pathway. […] (FIG. 23B) Histology sections of mice treated with or without DSS and PBS or MNA were also obtained. […] Sections from several mice were also examined by a blinded observer and scored for colitis index.
(FIG. 24B) Using immunofluoresce antibody staining, quantified levels of occludin in the ileum and colon were also analyzed.

Caco2 BBE monolayer = assay: TEER of confluent Caco2 BBE monolayer disrupted by luminal DSS, with MNA; assay type: cell-based, human; conditions: low dose
Protocol: MNA was applied from Day-5 at different concentrations on the luminal (L) or basolateral (BL) compartments. The monolayer was disrupted by 3% DSS in the luminal side on days 5-8.
Caco2 were provided with MNA at day 0 either luminally (L, mimics oral) or basolaterally (BL, mimics intra-peritoneal) (FIG. 17). Then DSS was added to lumen to disrupt gut barrier in all treatments except control (blue circles).

Structure (SMILES)	disruption of the gut barrier, fluorescence microscopy (FIG. 11M) [1]	gene expression of Ocln (ZO-1 (Tjp1) and Ocln)	TJ expression at the protein and mRNA levels (ZO-1 (Tjp1) and Ocln)	body weight loss and recovery in DSS leaky gut model ([2]; 3% DSS, i.p. every other day, listed as MNA)	tissue damage in histology sections ([2]; DSS-treated animals)	fecal lipocalin levels ([2]; MNA-DSS vs PBS-DSS)	body weight when injected alone ([2]; i.p. every other day, no DSS)	barrier function (plasma ovalbumin after oral ovalbumin gavage), increase vs PBS treated mice ([2]; i.p. injection) [fold]	colitis score (colitis index, blinded observer) ([2]; with DSS)	mRNA levels of Tjp1 and Ocln in the ileum ([2]; with DSS)	TEER after DSS barrier disruption (Caco2 BBE monolayer)
NC(=O)Cc1c[nH]c2ccccc12 [Indole-3-acetamide, indole-3-acetamide]	prevented disruption of the gut barrier	increased gene expression of Ocln	increased TJ expression								
C[n+]1cccc(C(N)=O)c1 [Methylnicotinamide, 1-methynicotinamide]	prevented disruption of the gut barrier	increased gene expression of Ocln	increased TJ expression	dampened then accelerated the recovery of body weight; also recorded: robust and faster recovery	alleviated	reduced fecal lipocalin	no deleterious effect on body weight	2	protected the tissue from damage even with DSS	increasing the mRNA levels to normal	prevented barrier disruption
